Experimental data: publication PMC11855207, “Synthesis and Evaluation of Aromatic A-Ring 23-Oxavitamin D3 Analogues as Hedgehog Pathway Inhibitors” (International Journal of Molecular Sciences, 2025)

These molecules were tested on Hh signaling pathway (Gli1 mRNA) in C3H10T1/2 cells (assay: Gli1 mRNA down-regulation (qPCR) in OHC-stimulated C3H10T1/2 cells). Conditions: Mus musculus, C3H 10T1/2, 5 μM with OHCs 5 μM, 24 h, relative Gli1 mRNA levels compared to OHCs (set to 100%).
Format: cell-based, mouse
Description: (§1) The VD3 analogues were initially assessed for their ability to inhibit the Hh signaling pathway by evaluating the effects on endogenous Gli1 mRNA levels at a single concentration (5 μM) co-administration of oxysterols (OHCs; 20(S)-hydroxycholesterol, 22(S)-hydroxycholesterol at 5 μM each) in C3H10T1/2 cells, an Hh-dependent mouse embryonic fibroblast (MEF) cell line. […] VD3 derivatives may retain some VDR agonistic activity, thereby compromising the selectivity of these compounds as Hh inhibitors. The selectivity profile of the analogues for Hh inhibition, compared to typical VDR activation, was assessed by measuring the ability to up-regulate Cyp24a1 mRNA levels in the same cellular system and by evaluating their binding to VDR using a fluorescence polarization-based competition assay (Table 1).
(§2) Mouse embryonic fibroblast cell line (C3H10T1/2, wild-type, VDR^−/−, SuFu^−/−), mouse keratinocyte cell line (ASZ001), and human embryonic kidney cell line (HEK293T) were purchased from China Center for Type Culture Collection (CCTCC; Wuhan, Hubei, China) and cultured under standard protocols. […] Therefore, they can be used to assess the inhibitory strength of the Hh signaling and the selectivity of the VDR signaling. VDR^−/− and SuFu^−/− C3H10T1/2 cells were used to study compounds selectivity for Hh and VDR signaling. If compounds regulate Hh signaling independently of VDR, their ability to down-regulate Gli1 mRNA expression should be abolished in SuFu^−/− C3H10T1/2 cells. […] The loss of Ptch in ASZ001 cells […], so down-regulating Gli1 reflects direct Smo inhibition by the compound. Comparing results from ASZ001 and C3H10T1/2 cells highlights the compound’s inhibition of the Hh signaling pathway.
(§3) RNA isolation in C3H10T1/2 cells was performed in 24-well plates (50,000 cells plated; TRIZOL Reagent); in ASZ001, cells were done in 35 mm dishes (300,000 cells plated; TRIZOL Reagent). cDNA synthesis was performed utilizing the SweScript All-in-One RT SuperMix Kit (Servicebio, Wuhan, China) per the manufacturer’s instructions on a BioRad S1000 Thermal Cycler (Hercules, CA, USA). qPCR (Hh signaling pathway and VDR) analysis of target genes was performed on Step OnePlus (ABI) using the Taqman Gene Expression Assays: mouse ActB (Mm00607939_s1), mouse GLI1 (Mm00494645_ml), mouse PTCH1(Mm00436026_m1), and mouse CYP24A1 (Mm00487244_ml). Relative gene expression levels were computed via the ΔΔCt method. ActinB mRNA expression levels of all samples were normalized to DMSO control ActinB mRNA levels (vehicle; set at 1.00). […] The mRNA expression levels from drug-treated samples were compared to OHCs levels (Gli1, PTCH) and DMSO control (Cyp24A1).
For COc1cccc(C(=O)O[C@H]2CCC[C@]3(C)[C@@H]([C@H](C)COCC(C)(C)O)CC[C@@H]23)c1 [Compound 4d], the mrna remaining at 5 µM was 62.3 ± 4.8%.
C[C@H](COCC(C)(C)O)[C@H]1CC[C@H]2[C@@H](OC(=O)c3ccc(Cl)cc3)CCC[C@]12C [Compound 4e] gave a mrna remaining at 5 µM of 26.1 ± 2.1%.
With C[C@H](COCC(C)(C)O)[C@H]1CC[C@H]2[C@@H](OC(=O)c3cc([N+](=O)[O-])cc([N+](=O)[O-])c3)CCC[C@]12C [Compound 4f] the mrna remaining at 5 µM was 30.7 ± 2.5%.
COc1ccc(C(=O)O[C@H]2CCC[C@]3(C)[C@@H]([C@H](C)COCC(C)(C)O)CC[C@@H]23)cc1O [Compound 4g] gave a mrna remaining at 5 µM of 2.5 ± 0.5%.
C[C@H](COCC(C)(C)O)[C@H]1CC[C@H]2[C@@H](OC(=O)c3cccc(O)c3)CCC[C@]12C [Compound 4h] was tested, and the mrna remaining at 5 µM was 3.8 ± 0.4%.
C[C@H](COCC(C)(C)O)[C@H]1CC[C@H]2[C@@H](OC(=O)c3ccc(O)cc3)CCC[C@]12C [Compound 4j] was tested, and the mrna remaining at 5 µM was 4.6 ± 0.8%.

Same assay, conditions: Mus musculus, C3H 10T1/2, mean ± SEM
COc1ccc(C(=O)O[C@H]2CCC[C@]3(C)[C@@H]([C@H](C)COCC(C)(C)O)CC[C@@H]23)cc1O [Compound 4g] was tested, and the IC50 was 2.1 ± 0.2 µM.
With C[C@H](COCC(C)(C)O)[C@H]1CC[C@H]2[C@@H](OC(=O)c3cccc(O)c3)CCC[C@]12C [Compound 4h] the IC50 was 2.8 ± 0.2 µM.

The molecules below were run on VDR signaling (Cyp24A1 mRNA) in C3H10T1/2 cells (assay: Cyp24A1 mRNA up-regulation (qPCR) in C3H10T1/2 cells). Conditions: Mus musculus, C3H 10T1/2, 5 μM with OHCs 5 μM, 24 h, relative to DMSO (set to 1.0).
Format: cell-based, mouse
Description: as §1, §2, §3
COc1cccc(C(=O)O[C@H]2CCC[C@]3(C)[C@@H]([C@H](C)COCC(C)(C)O)CC[C@@H]23)c1 [Compound 4d] was tested, and the fold induction at 5 µM was 86.8 ± 11.3.
C[C@H](COCC(C)(C)O)[C@H]1CC[C@H]2[C@@H](OC(=O)c3ccc(Cl)cc3)CCC[C@]12C [Compound 4e] showed a fold induction at 5 µM of 105 ± 21.4.
Work on C[C@H](COCC(C)(C)O)[C@H]1CC[C@H]2[C@@H](OC(=O)c3cc([N+](=O)[O-])cc([N+](=O)[O-])c3)CCC[C@]12C [Compound 4f] yielded a fold induction at 5 µM of 131 ± 19.7.
Molecule COc1ccc(C(=O)O[C@H]2CCC[C@]3(C)[C@@H]([C@H](C)COCC(C)(C)O)CC[C@@H]23)cc1O [Compound 4g] has a fold induction at 5 µM of 83.6 ± 15.6.
In the case of C[C@H](COCC(C)(C)O)[C@H]1CC[C@H]2[C@@H](OC(=O)c3cccc(O)c3)CCC[C@]12C [Compound 4h], the fold induction at 5 µM is reported as 87.4 ± 13.7.
Molecule C[C@H](COCC(C)(C)O)[C@H]1CC[C@H]2[C@@H](OC(=O)c3ccc(O)cc3)CCC[C@]12C [Compound 4j] has a fold induction at 5 µM of 127 ± 20.5.

Each molecule was assayed on primary Ptch-CKO MB cells (assay: Anti-proliferation (MTS) in primary Ptch-CKO MB cells). Conditions: Mus musculus, 48 h incubation, mean ± SEM.
Format: cell-based
Description: Ptch-CKO MB cells, derived from a conditional Patched knockout mouse, lack Ptch-like ASZ001 cells. Consequently, the inhibitory effect of the compound on Ptch-CKO MB cells directly reflects its suppression of the canonical Hh signaling pathway. Cell viability was assessed by MTS proliferation assay kit (Promega, Madison, WI, USA) according to the manufacturer’s protocol. Culture conditions and experimental protocols to determine GI50 values in the primary murine Ptch-CKO MB cells were as previously described.
Molecule COc1ccc(C(=O)O[C@H]2CCC[C@]3(C)[C@@H]([C@H](C)COCC(C)(C)O)CC[C@@H]23)cc1O [Compound 4g] has a GI50 of 3.4 ± 0.5 µM.
Molecule C[C@H](COCC(C)(C)O)[C@H]1CC[C@H]2[C@@H](OC(=O)c3cccc(O)c3)CCC[C@]12C [Compound 4h] has a GI50 of over 10 µM.
C[C@H](COCC(C)(C)O)[C@H]1CC[C@H]2[C@@H](OC(=O)c3ccc(O)cc3)CCC[C@]12C [Compound 4j] was tested, and the GI50 was over 10 µM.

The molecules below were run against T1, recombinant VDR (Homo sapiens, UniProt P11473) (assay: VDR binding, fluorescence polarization-based competition assay (PolarScreen VDR Competitor Assay Red)). Conditions: compounds evaluated at 100 μM.
T1 construct: purchased Thermo Fisher Scientific
T1 sequence (P11473 1-427): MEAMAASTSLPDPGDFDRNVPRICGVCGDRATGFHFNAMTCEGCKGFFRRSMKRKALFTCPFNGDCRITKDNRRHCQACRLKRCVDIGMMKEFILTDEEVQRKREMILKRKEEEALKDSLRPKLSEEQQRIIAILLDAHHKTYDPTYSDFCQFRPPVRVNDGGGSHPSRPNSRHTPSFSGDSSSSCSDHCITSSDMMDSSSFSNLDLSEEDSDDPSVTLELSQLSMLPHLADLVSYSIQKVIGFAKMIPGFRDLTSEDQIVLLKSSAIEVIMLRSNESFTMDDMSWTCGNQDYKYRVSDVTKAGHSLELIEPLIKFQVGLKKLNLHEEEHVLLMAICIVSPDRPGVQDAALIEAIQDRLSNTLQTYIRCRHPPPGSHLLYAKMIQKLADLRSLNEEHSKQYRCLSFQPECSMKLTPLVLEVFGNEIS
Description: as §1
VDR binding assay was performed using a PolarScreen VDR Competitor Assay Red kit (Thermo Fisher Scientific, Carlsbad, CA, USA) per the manufacturer’s instructions. Compounds were evaluated at 100 μM in 2.5% final DMSO in triplicate. Calcitriol is utilized as a positive control for VDR binding.
In the case of COc1cccc(C(=O)O[C@H]2CCC[C@]3(C)[C@@H]([C@H](C)COCC(C)(C)O)CC[C@@H]23)c1 [Compound 4d], the “VDR Binding” value is reported as over 100 µM.
In the case of C[C@H](COCC(C)(C)O)[C@H]1CC[C@H]2[C@@H](OC(=O)c3ccc(Cl)cc3)CCC[C@]12C [Compound 4e], the “VDR Binding” value is reported as over 100 µM.
For C[C@H](COCC(C)(C)O)[C@H]1CC[C@H]2[C@@H](OC(=O)c3cc([N+](=O)[O-])cc([N+](=O)[O-])c3)CCC[C@]12C [Compound 4f], the “VDR Binding” value was over 100 µM.
COc1ccc(C(=O)O[C@H]2CCC[C@]3(C)[C@@H]([C@H](C)COCC(C)(C)O)CC[C@@H]23)cc1O [Compound 4g] was tested, and the “VDR Binding” value was over 100 µM.
For C[C@H](COCC(C)(C)O)[C@H]1CC[C@H]2[C@@H](OC(=O)c3cccc(O)c3)CCC[C@]12C [Compound 4h], the “VDR Binding” value was over 100 µM.
In the case of C[C@H](COCC(C)(C)O)[C@H]1CC[C@H]2[C@@H](OC(=O)c3ccc(O)cc3)CCC[C@]12C [Compound 4j], the “VDR Binding” value is reported as over 100 µM.

The molecules below were run on Hh signaling pathway (Gli1 mRNA) in ASZ001 cells (assay: Gli1 mRNA down-regulation (qPCR) in ASZ001 cells). Conditions: Mus musculus; ASZ001 cells; mean ± SEM; read-out: Gli1 IC50.
Format: cell-based
Description: Mouse embryonic fibroblast cell line (C3H10T1/2, wild-type, VDR^−/−, SuFu^−/−), mouse keratinocyte cell line (ASZ001), and human embryonic kidney cell line (HEK293T) were purchased from China Center for Type Culture Collection (CCTCC; Wuhan, Hubei, China) and cultured under standard protocols [16]. […] The loss of Ptch in ASZ001 cells prevents Smo inhibition, so down-regulating Gli1 reflects direct Smo inhibition by the compound.
(§4) RNA isolation in C3H10T1/2 cells was performed in 24-well plates (50,000 cells plated; TRIZOL Reagent); in ASZ001, cells were done in 35 mm dishes (300,000 cells plated; TRIZOL Reagent). cDNA synthesis was performed utilizing the SweScript All-in-One RT SuperMix Kit (Servicebio, Wuhan, China) per the manufacturer’s instructions on a BioRad S1000 Thermal Cycler (Hercules, CA, USA). qPCR (Hh signaling pathway and VDR) analysis of target genes was performed on Step OnePlus (ABI) using the Taqman Gene Expression Assays [18, 29]: mouse ActB (Mm00607939_s1), mouse GLI1 (Mm00494645_ml), mouse PTCH1(Mm00436026_m1), and mouse CYP24A1 (Mm00487244_ml). Relative gene expression levels were computed via the ΔΔCt method. ActinB mRNA expression levels of all samples were normalized to DMSO control ActinB mRNA levels (vehicle; set at 1.00). […] The mRNA expression levels from drug-treated samples were compared to OHCs levels (Gli1, PTCH) and DMSO control (Cyp24A1).
In the case of COc1ccc(C(=O)O[C@H]2CCC[C@]3(C)[C@@H]([C@H](C)COCC(C)(C)O)CC[C@@H]23)cc1O [Compound 4g], the IC50 is reported as 3.7 ± 0.7 µM.
With C[C@H](COCC(C)(C)O)[C@H]1CC[C@H]2[C@@H](OC(=O)c3cccc(O)c3)CCC[C@]12C [Compound 4h] the IC50 was 4.1 ± 0.5 µM.

What follows are molecules tested on ASZ001 cells (assay: Anti-proliferation (MTS) in ASZ001 cells). Conditions: Mus musculus, 48 h incubation, mean ± SEM.
Format: cell-based
In the case of COc1ccc(C(=O)O[C@H]2CCC[C@]3(C)[C@@H]([C@H](C)COCC(C)(C)O)CC[C@@H]23)cc1O [Compound 4g], the GI50 is reported as 7.8 ± 1.1 µM.
C[C@H](COCC(C)(C)O)[C@H]1CC[C@H]2[C@@H](OC(=O)c3cccc(O)c3)CCC[C@]12C [Compound 4h] showed a GI50 of over 20 µM.
C[C@H](COCC(C)(C)O)[C@H]1CC[C@H]2[C@@H](OC(=O)c3ccc(O)cc3)CCC[C@]12C [Compound 4j] was tested, and the GI50 was over 20 µM.

What follows are molecules tested on VDR signaling (Cyp24A1 mRNA) in ASZ001 cells (assay: Cyp24A1 mRNA expression (qPCR) in ASZ001 cells). Conditions: Mus musculus; ASZ001 cells; 5 μM, 24 h; DMSO set to 1.0; read-out: Cyp24A1 mRNA levels relative to DMSO.
Format: cell-based
Description: as §4
COc1ccc(C(=O)O[C@H]2CCC[C@]3(C)[C@@H]([C@H](C)COCC(C)(C)O)CC[C@@H]23)cc1O [Compound 4g] gave a fold induction at 5 µM of 56.8 ± 5.1.
Work on C[C@H](COCC(C)(C)O)[C@H]1CC[C@H]2[C@@H](OC(=O)c3cccc(O)c3)CCC[C@]12C [Compound 4h] yielded a fold induction at 5 µM of 60.3 ± 6.4.

Each molecule was assayed on Hh signaling pathway (Ptch mRNA) in C3H10T1/2 cells (assay: Ptch mRNA down-regulation (qPCR) in C3H10T1/2 cells). Conditions: Mus musculus, C3H 10T1/2; C3H10T1/2 cells; mean ± SEM; read-out: Ptch IC50.
Format: cell-based
Description: as §4
COc1ccc(C(=O)O[C@H]2CCC[C@]3(C)[C@@H]([C@H](C)COCC(C)(C)O)CC[C@@H]23)cc1O [Compound 4g] gave an IC50 of 3.8 ± 0.4 µM.
C[C@H](COCC(C)(C)O)[C@H]1CC[C@H]2[C@@H](OC(=O)c3cccc(O)c3)CCC[C@]12C [Compound 4h] was tested, and the IC50 was 5.7 ± 0.5 µM.
